Test results: the supplement of paper PMC10307832

What was measured:
Test in all cases: relative viability (nuclei count vs DMSO), 5 days (fraction); higher = more cells survive
PAC-1 + Foretinib = compound: C=CCc1cccc(/C=N/NC(=O)CN2CCN(Cc3ccccc3)CC2)c1O [PAC-1] + COc1cc2c(Oc3ccc(NC(=O)C4(C(=O)Nc5ccc(F)cc5)CC4)cc3F)ccnc2cc1OCCCN1CCOCC1 [Foretinib] (partner 0.25 µM)
Summary of the method: (§1)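 Values are medians from duplicate plates. Each reflects relative viability, defined as the nuclei count of treated wells over that of vehicle wells. Lung cancer cell lines in 1536-well plates were pin-tool dosed one day after seeding with one drug alone or with a fixed anchor-drug dose plus five library-drug doses (not always all listed) in √10 steps, then fixed, stained and imaged at 4× after 5 days.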

PAC-1 + OSI-027 = compound: C=CCc1cccc(/C=N/NC(=O)CN2CCN(Cc3ccccc3)CC2)c1O [PAC-1] + COc1cccc2cc(-c3nc([C@H]4CC[C@H](C(=O)O)CC4)n4ncnc(N)c34)[nH]c12 [OSI-027] (partner 0.5 µM)
Summary of the method: as §1

PAC-1 + Alpelisib = compound: C=CCc1cccc(/C=N/NC(=O)CN2CCN(Cc3ccccc3)CC2)c1O [PAC-1] + Cc1nc(NC(=O)N2CCC[C@H]2C(N)=O)sc1-c1ccnc(C(C)(C)C(F)(F)F)c1 [Alpelisib] (partner 2 µM)
Summary of the method: as §1

PAC-1 + AZD7762 = compound: C=CCc1cccc(/C=N/NC(=O)CN2CCN(Cc3ccccc3)CC2)c1O [PAC-1] + NC(=O)Nc1cc(-c2cccc(F)c2)sc1C(=O)N[C@H]1CCCNC1 [AZD7762] (partner 0.2 µM)
Summary of the method: as §1

PAC-1 + Pemetrexed = compound: C=CCc1cccc(/C=N/NC(=O)CN2CCN(Cc3ccccc3)CC2)c1O [PAC-1] + Nc1nc2[nH]cc(CCc3ccc(C(=O)N[C@@H](CCC(=O)O)C(=O)O)cc3)c2c(=O)[nH]1 [Pemetrexed] (partner 0.2 µM)
Summary of the method: as §1

In the case of NCI-H441, the relative viability (PAC-1 + Foretinib; first compound 0.02 µM) was 0.977, the relative viability (PAC-1 + Foretinib; first compound 0.06325 µM) was 0.943 and the relative viability (PAC-1 + Foretinib; first compound 0.2 µM) was 0.817. It also gave a relative viability (PAC-1 + Foretinib; first compound 2 µM) of 0.896, a relative viability (PAC-1 + OSI-027; first compound 0.02 µM) of 0.521 and a relative viability (PAC-1 + OSI-027; first compound 0.06325 µM) of 0.759. It also gave a relative viability (PAC-1 + OSI-027; first compound 0.2 µM) of 0.501, a relative viability (PAC-1 + OSI-027; first compound 2 µM) of 0.413 and a relative viability (PAC-1 + Alpelisib; first compound 0.02 µM) of 0.629. The relative viability (PAC-1 + Alpelisib; first compound 0.06325 µM) was 0.671, the relative viability (PAC-1 + Alpelisib; first compound 0.2 µM) was 0.679 and the relative viability (PAC-1 + Alpelisib; first compound 2 µM) was 0.57. For the same cell line, the relative viability (PAC-1 + AZD7762; first compound 0.02 µM) was 0.994, the relative viability (PAC-1 + AZD7762; first compound 0.06325 µM) was 1.15 and the relative viability (PAC-1 + AZD7762; first compound 0.2 µM) was 1.19. It also gave a relative viability (PAC-1 + AZD7762; first compound 2 µM) of 1.1, a relative viability (PAC-1 + Pemetrexed; first compound 0.02 µM) of 0.296 and a relative viability (PAC-1 + Pemetrexed; first compound 0.06325 µM) of 0.254. The relative viability (PAC-1 + Pemetrexed; first compound 0.2 µM) was 0.28 and the relative viability (PAC-1 + Pemetrexed; first compound 2 µM) was 0.237.

For NCI-H460, the relative viability (PAC-1 + Foretinib; first compound 0.02 µM) was 1.08, the relative viability (PAC-1 + Foretinib; first compound 0.06325 µM) was 0.915 and the relative viability (PAC-1 + Foretinib; first compound 0.2 µM) was 0.954. The relative viability (PAC-1 + Foretinib; first compound 2 µM) was 0.959, the relative viability (PAC-1 + OSI-027; first compound 0.02 µM) was 0.582 and the relative viability (PAC-1 + OSI-027; first compound 0.06325 µM) was 0.727. The relative viability (PAC-1 + OSI-027; first compound 0.2 µM) was 0.626, the relative viability (PAC-1 + OSI-027; first compound 2 µM) was 0.637 and the relative viability (PAC-1 + Alpelisib; first compound 0.02 µM) was 0.354. It also gave a relative viability (PAC-1 + Alpelisib; first compound 0.06325 µM) of 0.534, a relative viability (PAC-1 + Alpelisib; first compound 0.2 µM) of 0.433 and a relative viability (PAC-1 + Alpelisib; first compound 2 µM) of 0.327. It also gave a relative viability (PAC-1 + AZD7762; first compound 0.02 µM) of 0.548, a relative viability (PAC-1 + AZD7762; first compound 0.06325 µM) of 0.674 and a relative viability (PAC-1 + AZD7762; first compound 0.2 µM) of 0.602. It also gave a relative viability (PAC-1 + AZD7762; first compound 2 µM) of 0.656, a relative viability (PAC-1 + Pemetrexed; first compound 0.02 µM) of 0.0683 and a relative viability (PAC-1 + Pemetrexed; first compound 0.06325 µM) of 0.0604. For the same cell line, the relative viability (PAC-1 + Pemetrexed; first compound 0.2 µM) was 0.0685 and the relative viability (PAC-1 + Pemetrexed; first compound 2 µM) was 0.0667.

Work on NCI-H596 yielded a relative viability (PAC-1 + Foretinib; first compound 0.02 µM) of 0.767, a relative viability (PAC-1 + Foretinib; first compound 0.06325 µM) of 0.832 and a relative viability (PAC-1 + Foretinib; first compound 0.2 µM) of 0.876. It also gave a relative viability (PAC-1 + Foretinib; first compound 2 µM) of 0.894, a relative viability (PAC-1 + OSI-027; first compound 0.02 µM) of 0.733 and a relative viability (PAC-1 + OSI-027; first compound 0.06325 µM) of 0.745. It also gave a relative viability (PAC-1 + OSI-027; first compound 0.2 µM) of 0.695, a relative viability (PAC-1 + OSI-027; first compound 2 µM) of 0.719 and a relative viability (PAC-1 + Alpelisib; first compound 0.02 µM) of 0.428. The relative viability (PAC-1 + Alpelisib; first compound 0.06325 µM) was 0.561, the relative viability (PAC-1 + Alpelisib; first compound 0.2 µM) was 0.472 and the relative viability (PAC-1 + Alpelisib; first compound 2 µM) was 0.446. For the same cell line, the relative viability (PAC-1 + AZD7762; first compound 0.02 µM) was 1.11, the relative viability (PAC-1 + AZD7762; first compound 0.06325 µM) was 1.2 and the relative viability (PAC-1 + AZD7762; first compound 0.2 µM) was 1.09. It also gave a relative viability (PAC-1 + AZD7762; first compound 2 µM) of 1.13, a relative viability (PAC-1 + Pemetrexed; first compound 0.02 µM) of 0.435 and a relative viability (PAC-1 + Pemetrexed; first compound 0.06325 µM) of 0.471. It also gave a relative viability (PAC-1 + Pemetrexed; first compound 0.2 µM) of 0.477 and a relative viability (PAC-1 + Pemetrexed; first compound 2 µM) of 0.54.

With NCI-H647 the relative viability (PAC-1 + Foretinib; first compound 0.02 µM) was 1.17, the relative viability (PAC-1 + Foretinib; first compound 0.06325 µM) was 1.08 and the relative viability (PAC-1 + Foretinib; first compound 0.2 µM) was 1.29. The relative viability (PAC-1 + Foretinib; first compound 2 µM) was 1.31, the relative viability (PAC-1 + OSI-027; first compound 0.02 µM) was 0.684 and the relative viability (PAC-1 + OSI-027; first compound 0.06325 µM) was 0.762. For the same cell line, the relative viability (PAC-1 + OSI-027; first compound 0.2 µM) was 0.594, the relative viability (PAC-1 + OSI-027; first compound 2 µM) was 0.617 and the relative viability (PAC-1 + Alpelisib; first compound 0.02 µM) was 0.995. The relative viability (PAC-1 + Alpelisib; first compound 0.06325 µM) was 1.08, the relative viability (PAC-1 + Alpelisib; first compound 0.2 µM) was 1.14 and the relative viability (PAC-1 + Alpelisib; first compound 2 µM) was 0.709. The relative viability (PAC-1 + AZD7762; first compound 0.02 µM) was 0.44, the relative viability (PAC-1 + AZD7762; first compound 0.06325 µM) was 0.589 and the relative viability (PAC-1 + AZD7762; first compound 0.2 µM) was 0.502. For the same cell line, the relative viability (PAC-1 + AZD7762; first compound 2 µM) was 0.467, the relative viability (PAC-1 + Pemetrexed; first compound 0.02 µM) was 0.176 and the relative viability (PAC-1 + Pemetrexed; first compound 0.06325 µM) was 0.207. For the same cell line, the relative viability (PAC-1 + Pemetrexed; first compound 0.2 µM) was 0.163 and the relative viability (PAC-1 + Pemetrexed; first compound 2 µM) was 0.168.
